Test results from publication PMC11024869, “The activity of antimicrobial peptoids against multidrug-resistant ocular pathogens” (Contact lens & anterior eye : the journal of the British …, 2024).
No end group written: not given here.

Assays:
Trypsin = biological target: T1, Trypsin (Bos taurus, UniProt P00760)
T1 sequence (P00760 24-246): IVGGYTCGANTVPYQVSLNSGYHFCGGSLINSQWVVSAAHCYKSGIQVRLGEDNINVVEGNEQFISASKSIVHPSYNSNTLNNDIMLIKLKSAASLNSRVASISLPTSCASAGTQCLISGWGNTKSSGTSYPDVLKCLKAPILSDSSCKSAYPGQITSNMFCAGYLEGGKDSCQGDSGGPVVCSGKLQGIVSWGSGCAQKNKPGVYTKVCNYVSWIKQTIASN
Protocol: (§1) Melimine was used as positive control as it is a cationic antimicrobial peptide that can be hydrolysed by proteases. The Expasy peptide cutter module (https://web.expasy.org/peptide_cutter/) was accessed to predict which proteases might digest melimine. The susceptibility of the antimicrobial compounds to digestion by two proteases expected to digest melimine, Proteinase K (120 unit mL^−1 in 20 mM Tris HCl, pH 7.4; New England Bio Labs, Australia) and Trypsin (10,350 BAFE units/mg in 50 mM borate buffer, pH 8.5; Thermo Scientific products, Australia), was tested. The peptoids and melimine were incubated with each protease at the ratio (w/w) of 1:100 in PBS (pH 7.4) for 24 h at 37 °C. After incubation, the peptoid/melimine + protease solutions were tested for their activity against P. aeruginosa 216 which was grown overnight in TSB at 37 °C. Bacterial cells were washed three times in PBS and then resuspended in MHB OD660nm of 0.1 (equal to 1x10^8 CFU mL^−1. The bacterial suspension was then diluted in MHB to a final working concentration of 5x10^6 cells mL^−1. The diluted bacterial suspension was subsequently added to the wells containing the peptoids/melimine + protease solution and incubated for 24 h at 37 °C. Peptoids/melimine solutions alone (no proteases) were used as a positive control, while protease solutions without the peptoids/melimine were used as a negative control. Post incubation, to inhibit the activity of the proteases, the bacterial suspensions were heated at 55 °C for 10 min in a water bath. After the heating step, the absorbance of the suspensions was measured at OD660nm.

Proteinase K = Proteinase K (Parengyodontium album, UniProt P06873)
Protocol: as §1

Bacillus subtilis = conditions: cited from earlier work
Protocol: (§2) Peptoids act similarly to AMPs as their cationic regions interact electrostatically with the anionic membranes of bacteria and may also facilitate the targeting of intracellular DNA and ribosomal agglutination. […] For example, peptoids can have minimum inhibitory concentrations as low as 1.8 μg mL^−1 against Bacillus subtilis and 12.4 μg mL^−1 against Escherichia coli, whereas these bacteria had MICs of 4.5 μg mL^−1 and 35.6 μg mL^−1, respectively, with the AMP melittin [31] Di-guanidine peptoids, produced via acid amine-coupling between nap ...

Escherichia coli = conditions: cited from earlier work
Protocol: as §2

[1] = incubated with protease at ratio (w/w) 1:100 in PBS pH 7.4, 24 h 37 °C, then P aeruginosa 216 in MHB 24 h 37 °C, OD660nm
[2] = result in words, 24 h 37 °C, P. aeruginosa 216

Chain of Proteinase K (P06873 106-384): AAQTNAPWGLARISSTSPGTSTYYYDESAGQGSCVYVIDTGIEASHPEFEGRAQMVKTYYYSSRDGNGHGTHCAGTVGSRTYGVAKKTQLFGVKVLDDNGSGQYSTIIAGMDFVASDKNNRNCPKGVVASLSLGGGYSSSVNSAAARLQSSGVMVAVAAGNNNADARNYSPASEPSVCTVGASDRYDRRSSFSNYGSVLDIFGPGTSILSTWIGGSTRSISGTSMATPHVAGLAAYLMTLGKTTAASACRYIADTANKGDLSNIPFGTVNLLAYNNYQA

| Substance | MIC after Trypsin (Trypsin; [1]) | antimicrobial activity after digestion with trypsin (Trypsin; [2]) | MIC after Proteinase K (Proteinase K; [1]) | antimicrobial activity after digestion with proteinase K (Proteinase K; [2]) | MIC (Bacillus subtilis) [µg/mL] | MIC (Escherichia coli) [µg/mL] |
| --- | --- | --- | --- | --- | --- | --- |
| TLISWIKNKRKQRPRVSRRRRRRGGRRRR [Melimine, reference compound] | >250 (66) μg mL^−1 | lost all of its antimicrobial activity | >250 (66) μg mL^−1 | lost all of its antimicrobial activity |  |  |
| melittin: the AMP melittin |  |  |  |  | 4.5 | 35.6 |
